Measured values taken from patent publication US20120309087A1, “CANCER THERAPY” (University Court of The University of Dundee, priority 2006, published 2012).

Tests used:
[1] = system: binding of Nrf2 to an ARE sequence; assay: Biotinylated ARE oligonucleotide pull-down assay, AREc32 nuclear extracts; details: 10 μM tBHQ with 1 μM ATRA, 24 h
[2] = target: interaction between RARα and Nrf2 (Homo sapiens, UniProt P10276); assay: Co-immunoprecipitation of RARα and Nrf2; type: binding; details: co-immunoprecipitation experiments
[3] = system: AKR1C1, NQO1, GCLC, GCLM mRNA in A549 cells; assay: Constitutive mRNA of ARE-driven genes in A549 cells (Taqman); type: cell-based, human; details: 24 hrs
[4] = system: AKR1C protein in Caco-2 cells; assay: AKR1C protein in Caco-2 cells (Western blotting); type: cell-based, human; details: sulforaphane 5 μM, BTB09463 5 μM or Retinoic acid 1 μM, 24 hrs
Description: Method: AREc32 cells were seeded out in 96 well plates and treated with DMSO (control), tBHQ (50 μM), tBHQ+BTB09463 (5 μM) or tBHQ+Retinoic acid (1 μM). After 24 hours incubation, cells were washed and lysed before measuring luciferase activity. BTB09463 is 1-{4-[(3,4-dichlorobenzyl)oxy]phenyl}ethan-1-one. […] Method: AREc32 cells were seeded out in 96 well plates and dosed with BTB09463 (2.5, 5 or 10 μM) for 0, 24 or 48 hrs before treatment with tBHQ (50 μM). 24 hours after the addition of tBHQ, cells were washed and lysed before measuring luciferase activity. […] Method: ARE c32 cells were seeded out in 96 well plates and treated with DMSO (control), tBHQ (50 μM), tBHQ+retinoid (0.25, 0.5 and 1 μM). After 24 hours incubation, cells were washed and lysed before measuring luciferase activity. […] See FIG. 16 Method: A. Caco-2 cells were treated with the known ARE-gene inducer sulforaphane (5 μM), either alone or concomitantly with BTB09463 (5 μM) or Retinoic acid (1 μM). After 24 hrs, cell lysates were prepared and Western blotting performed to measure the levels of AKR1C protein. B. MCF7 cells were treated with sulforaphane (5 μM), either alone or concomitantly with BTB09463 (5 μM). After 24 hrs, cell lysates were prepared and Western blots performed to detect the levels of AKR1C and NQO1; GAPDH was used as a loading control in MCF7 cells. […] Method: Caco-2 cells were treated with DMSO (control), BTB09463 (5 μM), sulforaphane (5 μM) or a combination of sulforaphane plus BTB09463. After 24 hrs treatment, cells were harvested and RNA isolated. cDNA for each sample was generated by reverse transcription and subsequently used in real time PCR analysis of gene transcription (TaqMan analysis) for the ARE-driven genes AKR1C1 and NQO1. Data was normalised to the internal control 18S RNA and the relative levels of AKR1C1 and NQO1 calculated using the comparative CT method. […] Method: MCF7 cells were treated with the known ARE-gene inducer sulforaphane (5 μM), either alone or with various retinoids (0.5 μM). After 24 hrs, cell lysates were prepared and Western blots were performed to detect the levels of AKR1C protein present. […] See FIG. 19 Method: ARE reporter cell line AREc23 was seeded into 96 well plates and treated with a previously determined non-toxic concentration of cytotoxic drug. After 24 hours incubation, cells were washed and lysed before measuring luciferase activity. […] See FIG. 20a Method: ARE reporter cell line AREc23 was seeded into 96 well plates and treated with DMSO (control), Carmustine (100 μM), Carmustine+BTB09463 (5 μM) or Carmustine+Retinoic acid (5 μM) After 24 hours incubation, cells were washed and lysed before measuring luciferase activity. […] After 24 hours incubation, cells were washed and lysed before measuring luciferase activity. […]

[5] = system: protein complexes binding to an ARE sequence; assay: Electrophoretic mobility shift assay with ARE probe, AREc32 nuclear extracts; details: 10 μM tBHQ with 1 μM ATRA, 24 h
[6] = system: GST, GCLC and NQO1 in the small intestine; assay: ARE-regulated proteins in small intestine of mice on vitamin A deficient diet; type: in vivo; details: wild-type mice; ATRA i.p. 10 mg/kg daily for last 2 weeks of VAD diet
Description: Wild-type (nrf2^+/+) and knockout (KO, nrf2^−/−) mice, 8 weeks old, were placed on control or vitamin A deficient (VAD) diet for six weeks as described in “Materials and Methods II”. Portions (5 μg protein) of crude extracts from small intestine of wild-type and KO mice were subjected to Western blotting with specific antibodies against NQO1, GstM5, GstA1/2 and GCLC. Each lane contains a sample from an individual mouse. […] These animals were sacrificed and immunoblotting for GST, GCLC and NQO1 performed as before.
Homozygous Nrf2 KO mice and mouse genotyping were as described previously (Itoh et al., 1997). Two month old, C57BL/6 nrf2^−/− and nrf2^+/+ male mice were used in this study. Animals were maintained in a 12-h light-dark cycle, with free access to food and water. The mice were weighed daily during the experiment period. All animal procedures were carried out under UK Home Office license and after gaining local ethical committee approval.
Two feeding experiments were carried out. In Experiment 1, at the first stage, which lasted for four weeks, Nrf2 (+/+) mice were maintained on a retinoic acid deficient VAD diet (Special Diet Services, Witham, Essex, UK). […] In experiment 2, Nrf2 (−/−) mice were maintained on control or VAD diet for six weeks. […]

[7] = system: Nrf2; assay: Nuclear Nrf2 level in AREc32 cells (western blot of nuclear extracts); details: 10 μM tBHQ plus 1 μM ATRA, 24 h
[8] = system: AKR1C mRNA in AREc32 cells; assay: AKR1C mRNA in AREc32 cells (TaqMan)
[9] = system: AKR1C protein in AREc32 cells; assay: AKR1C protein in AREc32 cells (western blotting); details: 1 μM ATRA, 10 μM tBHQ; scanning of the Western blots
[10] = system: ARE-driven luciferase activity in AREc32 cells; assay: Antagonism of induced ARE-driven luciferase activity in AREc32 cells; type: cell-based, human
[11] = 1 μM ATRA with 10 μM tBHQ, acrolein, NF or Sul, 24 h

Sequence of interaction between RARα and Nrf2 (P10276 whole entry): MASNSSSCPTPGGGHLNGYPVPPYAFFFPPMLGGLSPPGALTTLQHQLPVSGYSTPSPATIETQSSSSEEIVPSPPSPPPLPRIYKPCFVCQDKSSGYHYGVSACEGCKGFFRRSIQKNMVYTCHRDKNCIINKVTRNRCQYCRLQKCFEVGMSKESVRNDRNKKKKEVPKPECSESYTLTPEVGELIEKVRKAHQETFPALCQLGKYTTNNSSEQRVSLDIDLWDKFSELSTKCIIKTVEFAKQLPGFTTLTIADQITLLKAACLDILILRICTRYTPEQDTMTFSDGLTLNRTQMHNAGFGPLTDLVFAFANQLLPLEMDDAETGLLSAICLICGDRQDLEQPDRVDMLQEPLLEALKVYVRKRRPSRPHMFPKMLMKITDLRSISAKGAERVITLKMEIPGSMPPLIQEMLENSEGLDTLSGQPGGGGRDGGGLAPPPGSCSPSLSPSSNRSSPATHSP
Sequence of interaction between RARα and Nrf2 (Q16236 whole entry partner): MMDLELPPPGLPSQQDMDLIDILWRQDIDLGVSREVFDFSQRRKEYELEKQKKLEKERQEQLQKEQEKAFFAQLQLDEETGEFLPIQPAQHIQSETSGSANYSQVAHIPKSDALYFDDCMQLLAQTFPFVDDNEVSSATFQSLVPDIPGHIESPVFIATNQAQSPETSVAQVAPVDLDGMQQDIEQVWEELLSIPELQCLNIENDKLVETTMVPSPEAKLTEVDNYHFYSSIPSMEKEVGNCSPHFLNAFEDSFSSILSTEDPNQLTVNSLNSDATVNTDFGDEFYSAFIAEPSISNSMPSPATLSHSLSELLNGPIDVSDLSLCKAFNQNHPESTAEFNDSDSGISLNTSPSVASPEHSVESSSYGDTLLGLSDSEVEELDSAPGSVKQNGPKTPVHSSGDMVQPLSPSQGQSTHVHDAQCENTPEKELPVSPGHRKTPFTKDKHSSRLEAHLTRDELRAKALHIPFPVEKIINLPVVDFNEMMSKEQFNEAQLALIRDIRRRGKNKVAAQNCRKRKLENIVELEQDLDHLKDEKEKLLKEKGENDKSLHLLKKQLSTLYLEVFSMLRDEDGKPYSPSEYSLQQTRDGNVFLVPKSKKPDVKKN

With `CC1=C(/C=C/C(C)=C/C=C/C(C)=C/C(=O)O)C(C)(C)CCC1` [ATRA, all trans-retinoic acid] the “binding of Nrf2 to the ARE (pull-down)” value [1] was “inhibited the binding of Nrf2 to the ARE”, the “association between RARα and Nrf2” value [2] was “greatly promoted” and the “constitutive expression of AKR1C1 mRNA” value ([3]; BTB09463 1, 5, 20, 40 μmol/l or retinoids 0.050, 0.20, 0.50, 2.0 μmol/l) was “inhibited the constitutive expression of AKR1C1 in a concentration-dependent manner”. For the same molecule, the “constitutive mRNA levels of NQO1, GCLC and GCLM” value ([3]; BTB09463 1-40 μmol/l or retinoic acid 0.050-2.0 μmol/l) was “repressed the constitutive mRNA levels of NQO1, GCLC and GCLM in a concentration-dependent manner”, the “sulforaphane induction of AKR1C protein” value [4] was “dramatically reduced” and the “binding of complexes to core ARE sequence (EMSA)” value [5] was “binding was reduced”. The “induction of ARE-driven genes (GstM5, GCLC, NQO1, GstA1) by VAD diet in the small intestine” value [6] was “almost completely reversed”, the “nuclear translocation / nuclear concentration of Nrf2” value [7] was “did not block nuclear translocation of Nrf2” and the “inhibition of tBHQ induction of AKR1C1 mRNA” value ([8]; 1 μM ATRA, after subtracting the DMSO control) was “approximately 85%”. For the same molecule, the “induction of AKR1C1 mRNA by tBHQ on co-incubation” value ([8]; 10 μM tBHQ plus 1 μM ATRA, 24 h) was 3 fold, the “reduction of tBHQ-induced AKR1C protein” value [9] was “approximately 50%” and the “effect on increase in ARE-driven luciferase activity by inducing agents” value [10, 11] was “significantly attenuated”. The “luciferase activity following subtraction of the DMSO control” value [10, 11] was “almost complete ablation of luciferase activity”, the “induction of ARE-driven luciferase activity by anticancer drugs” value ([10]; 1 μM ATRA with cisplatin, melphalan, chlorambucil or BCNU, no BSO) was “prevented” and the “ARE responses to anticancer drugs after BSO pre-treatment” value ([10]; 1 μM ATRA, 50 μM BSO pre-treatment, after subtraction of DMSO control) was “reduced almost to background levels”. For the same molecule, the “lag phase before increase of luciferase activity” value ([10]; 10 μM tBHQ plus 1 μM ATRA simultaneously) was 16 h, the “suppression of tBHQ induction of luciferase” value ([10]; 50 μM tBHQ + 1 μM Retinoic acid, 24 h) was ~75% and the “carmustine-mediated induction of luciferase activity” value ([10]; Carmustine 100 μM + BTB09463 5 μM or Retinoic acid 5 μM, 24 hours) was “completely suppress”.
